Measured values published in patent US20080200376A1, “Compositions and Methods For the Treatment Of Obesity and Sexual Dysfunction” (priority 2004, published 2008).

How the values were obtained:
[1] = system: cisplatin-induced emesis in ferrets; test: Ferret emesis assay; type: in vivo; conditions: p.o.
Procedure: Individually housed male ferrets (1.0-2.5 kg) are dosed orally by gavage with test compound. Ten minutes later they are fed with approximately 100 g of tinned cat food. At 60 minutes following oral dosing, cisplatin (10 mg/kg) is given i.v. via a jugular vein catheter inserted under a brief period of halothane anaesthesia. The catheter is then removed, the jugular vein ligated and the skin incision closed. The ferrets recover rapidly from the anaesthetic and are mobile within 10-20 minutes. The animals are observed continuously during recovery from the anaesthetic and for 4 hours following the cisplatin injection, after which time the animals are killed humanely. The numbers of retches and vomits occurring during the 4 hours after cisplatin administration are recorded by trained observers.

[2] = system: foot tapping in gerbils induced by central injection of an NK-1 agonist; test: Gerbil foot-tapping assay; type: in vivo; conditions: i.v.
Source text: CNS-penetrant NK-1 receptor antagonists for use in the present invention can be identified by their ability to inhibit foot tapping in gerbils induced by anxiogenic agents (such as pentagastrin) or central infusion of NK-1 receptor agonists such as GR73632, or caused by aversive stimulation such as foot shock or single housing, based on the method of Rupniak & Williams, Eur. J. Pharmacol., 1994, 265, 179.
Male or female Mongolian gerbils (35-90 g) are anaesthetised by inhalation of an isoflurane/oxygen mixture to permit exposure of the jugular vein in order to permit administration of test compounds or vehicle in an injection volume of 5 ml/kg i.v. Alternatively, test compounds may be administered orally or by subcutaneous or intraperitoneal routes. A skin incision is then made in the midline of the scalp to expose the skull. […] The duration and/or intensity of hind foot tapping is then recorded continuously for approximately 5 minutes. Alternatively, the ability of test compounds to inhibit foot tapping evoked by aversive stimulation, such as foot shock or single housing, may be studied using a similar method of quantification.

[3] = system: distress vocalisations in guinea-pig pups; test: Separation-induced vocalisation assay; type: in vivo; conditions: p.o.
Procedure: Male and female guinea-pigs pups are housed in family groups with their mothers and littermates throughout the study. Experiments are commenced […] when the pups are 2 weeks old. Before entering an experiment, the pups are screened to ensure that a vigorous vocalisation response is reproducibly elicited following maternal separation. The pups are placed individually in an observation cage (55 cm×39 cm×19 cm) in a room physically isolated from the home cage for 15 minutes and the duration of vocalisation during this baseline period is recorded. Only animals which vocalise for longer than 5 minutes are employed for drug challenge studies (approximately 50% of available pups may fail to reach this criterion). On test days each pup receives an oral dose or an s.c. or i.p. injection of test compound or vehicle and is then immediately returned to the home cage with its mother and siblings for 30 to 60 minutes (or for up to 4 hours following an oral dose, dependent upon the oral pharmacokinetics of the test compound) before social isolation for 15 minutes as described above. The duration of vocalisation on drug treatment days is expressed as a percentage of the pre-treatment baseline value for each animal. The same subjects are retested once weekly for up to 6 weeks. Between 6 and 8 animals receive each test compound at each dose tested.

ferrets = test: MC4R associated emesis in ferrets, Compound A and Compound B (Table 1); type: in vivo, ferret; conditions: Compound B 10 mg/kg PO; for % Emesis: ferrets; for # of Ferrets: ferrets with emesis/dosed
Procedure: (§1) Food intake (FI) was monitored at 1, 2, 4, and 24, hours after dosing. Body weight (BWT) was measured at the time of dosing and at 24 hours. Any incidence of emesis or abnormal behavior by subjects was recorded. Two studies were combined to generate the data.

[4] = Food intake in ad lib fed ferrets, Compound A and Compound B (FIG. 1); type: in vivo, ferret; conditions: oral, Compound B 10 mg/kg, Compound A 60 mg/kg or the combination, 1, 2, 4 and 24 hours after dosing
Procedure: FIG. 1. […] All food intake data were analyzed by two-tailed T-TEST.
as §1

Compound	ferret emesis ID90 [1]	gerbil foot-tapping (5 mins.) ID50 ([2]; 5 mins.)	gerbil foot-tapping (24 hrs.) ID50 ([2]; 24 hrs.)	guinea-pig vocalisation (4 hr. pre-treatment) ID50 [3]	% Emesis (ferrets; 1 hour)	% Emesis (ferrets; 2 hours)	% Emesis (ferrets; 4 hours)	% Emesis (ferrets; Total)	# of Ferrets (ferrets; 1 hour)	# of Ferrets (ferrets; 2 hours)	# of Ferrets (ferrets; 4 hours)	# of Ferrets (ferrets; Total)	Food intake [4]
C[C@@H](O[C@H]1OCCN(Cc2nc(=O)[nH][nH]2)[C@H]1c1ccc(F)cc1)c1cc(C(F)(F)F)cc(C(F)(F)F)c1 [2-(R)-(1-(R)-(3,5-bis(trifluoromethyl)phenyl)ethoxy)-3-(S)-(4-fluorophenyl)-4-(3-(5-oxo-1H,4H-1,2,4-triazolo)methyl)morpholine]	< 3 mg/kg	0.36 mg/kg	0.33 mg/kg	0.73 mg/kg									
C[C@@H](O[C@H]1OCCN(Cc2nn[nH]c2CN(C)C)[C@H]1c1ccc(F)cc1)c1cc(C(F)(F)F)cc(C(F)(F)F)c1 [Compound B, 2-(R)-(1-(R)-(3,5-bis(trifluoromethyl)phenyl)ethoxy)-4-(5-(dimethylamino)methyl-1,2,3-triazol-4-yl)methyl-3-(S)-(4-fluorophenyl)morpholine]					0%	0%	0%	0%	0/9	0/9	0/9	0/9	significantly reduced in the NK1 dose group at 24 hours only
